Paper PMC4505687, “5-HT3 Receptor Brain-Type B-Subunits are Differentially Expressed in Heterologous Systems” (ACS Chemical Neuroscience, 2015)
pIC50: −log10 of the molar value. Like-named read-outs stand apart in the source and are kept apart here. Marks after values point to notes of the source that are not given here. Each block holds one compound with its values, some of them ahead of it.

What was measured:
[1] = tested on: 5-HT3 receptors (5-HT3A, 5-HT3AB, 5-HT3ABr1, 5-HT3ABr2); assay: Competition binding against [3H]granisetron at different 5-HT3 receptors expressed in HEK293 cells
Procedure: Transfected HEK 293 cells were scraped into 1 mL of ice-cold HEPES buffer (10 mM, pH 7.4) and frozen. […] For competition binding (8 point), reactions were incubated for at least 1 h at 4 °C. Reactions were terminated by vacuum filtration using a Brandel cell harvester onto GF/B filters presoaked in 0.3% polyethylenimine. Radioactivity was determined by scintillation counting using a Beckman BCLS6500 instrument (Fullerton, CA). Individual competition binding experiments were analyzed by iterative curve fitting using Prism.

5-HT3ABr2 receptors [2] = target: T1, 5-HT3ABr2 receptors (Homo sapiens, UniProt P46098); assay: 5-HT-induced macroscopic currents, two-electrode voltage-clamp in Xenopus oocytes; assay type: cell-based
T1 construct: expressed in transfected cells; host or cells: Xenopus laevis oocytes (cRNA from pGEMHE) or HEK293 cells (pcDNA3.1), A:Br2 ratio 1:3 unless otherwise stated
T1 sequence (P46098 24-478): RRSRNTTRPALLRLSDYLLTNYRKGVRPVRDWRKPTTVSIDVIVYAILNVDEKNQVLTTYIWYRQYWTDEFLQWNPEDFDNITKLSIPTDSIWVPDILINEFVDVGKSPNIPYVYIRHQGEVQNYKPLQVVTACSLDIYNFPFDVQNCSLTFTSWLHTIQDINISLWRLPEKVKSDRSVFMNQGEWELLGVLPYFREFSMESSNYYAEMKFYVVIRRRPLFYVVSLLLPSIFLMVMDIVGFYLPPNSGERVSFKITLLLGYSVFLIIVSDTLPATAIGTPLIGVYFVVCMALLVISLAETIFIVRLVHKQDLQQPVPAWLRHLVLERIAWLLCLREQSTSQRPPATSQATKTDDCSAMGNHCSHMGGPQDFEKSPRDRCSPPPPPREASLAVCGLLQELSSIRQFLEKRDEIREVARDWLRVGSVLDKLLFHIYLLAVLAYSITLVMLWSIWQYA
Procedure: (§1) Xenopus laevis oocyte-positive females were purchased from NASCO (Fort Atkinson, WI) and maintained according to standard methods. Harvested stage V–VI Xenopus oocytes were washed in four changes of Ca-free ND96 (96 mM NaCl, 2 mM KCl, 1 mM MgCl2, 5 mM HEPES, pH 7.5), defolliculated in 1.5 mg mL^–1 collagenase Type 1A for approximately 2 h, washed again in four changes of ND96, and then stored in ND96 containing 2.5 mM sodium pyruvate, […] gentamycin, and 0.7 mM theophylline.
(§2) cDNA was cloned into pGEMHE for oocyte expression, and pcDNA3.1 (Invitrogen, Paisley, U.K.) for expression in HEK 293 cells. Mutagenesis (Figure 1) was performed using QuikChange (Agilent Technologies Inc., Santa Clara, CA). cRNA was in vitro transcribed from linearized pGEMHE cDNA template using the mMessage mMachine T7 Transcription kit (Ambion, Austin, TX). 5-HT3A was linearized with SphI and 5-HT3B cDNA with NheI. Stage V and VI oocytes were injected with 50 nL of ∼400 ng μL^–1 cRNA, and currents were recorded 1–4 days postinjection. Ratios of 1:3 (5-HT3A:5-HT3B/5-HT3Br1/5-HT3Br2) were used for the expression of heteromeric receptors unless otherwise stated.
(§3) Currents were recorded at a frequency of 5 kHz and filtered at 1 kHz. Microelectrodes were fabricated from borosilicate glass (GC120TF-10, Harvard Apparatus, Edenbridge, Kent, U.K.) using a one stage horizontal pull (P-87, Sutter Instrument Company, Novato, CA) and filled with 3 M KCl. Pipet resistances ranged from 1.0 to 2.0 MΩ. […] Drug application was via a simple gravity fed system calibrated to run at the same rate.

5-HT3A receptors [3] = target: T2, 5-HT3A receptors (Homo sapiens, UniProt P46098); settings: cited from earlier work
T2 construct: expressed in transfected cells; host or cells: Xenopus laevis oocytes (cRNA from pGEMHE) or HEK293 cells (pcDNA3.1)
T2 sequence (P46098 24-478): T1 sequence (P46098 24-478)

5-HT3AB receptors [4] = target: T3, 5-HT3AB receptors (Homo sapiens, UniProt O95264+P46098); assay: 5-HT-induced macroscopic currents, two-electrode voltage-clamp in Xenopus oocytes; assay type: cell-based; settings: Hill slope, 5-HT3AB receptors in oocytes
T3 construct: expressed in transfected cells; host or cells: Xenopus laevis oocytes (cRNA from pGEMHE) or HEK293 cells (pcDNA3.1), A:B ratio 1:3
T3 sequence (P46098 24-478): T1 sequence (P46098 24-478)
T3 sequence (O95264 22-441): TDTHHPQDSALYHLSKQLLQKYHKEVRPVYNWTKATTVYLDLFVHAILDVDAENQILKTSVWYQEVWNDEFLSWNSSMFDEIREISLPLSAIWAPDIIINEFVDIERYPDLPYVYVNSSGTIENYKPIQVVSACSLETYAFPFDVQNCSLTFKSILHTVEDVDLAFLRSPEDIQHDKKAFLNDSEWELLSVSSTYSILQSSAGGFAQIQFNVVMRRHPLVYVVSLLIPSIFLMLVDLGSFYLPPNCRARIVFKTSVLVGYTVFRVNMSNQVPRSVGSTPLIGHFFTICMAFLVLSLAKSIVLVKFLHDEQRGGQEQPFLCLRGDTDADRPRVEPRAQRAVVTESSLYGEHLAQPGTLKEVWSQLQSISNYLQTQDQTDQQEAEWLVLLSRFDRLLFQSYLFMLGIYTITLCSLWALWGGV
Procedure: as §1, §2, §3

5-HT3A receptors [5] = target: T2, 5-HT3A receptors; assay: as above; assay type: cell-based; settings: Hill slope, 5-HT3A receptors in oocytes
Procedure: as §1, §2, §3

5-HT3ABr1 receptors [6] = target: T4, 5-HT3ABr1 receptors (Homo sapiens, UniProt O95264+P46098); assay: as above; assay type: cell-based; settings: Hill slope, 5-HT3ABr1 receptors in oocytes
T4 sequence (P46098 24-478): T1 sequence (P46098 24-478)
T4 sequence (O95264 1-430 isoform O95264-2): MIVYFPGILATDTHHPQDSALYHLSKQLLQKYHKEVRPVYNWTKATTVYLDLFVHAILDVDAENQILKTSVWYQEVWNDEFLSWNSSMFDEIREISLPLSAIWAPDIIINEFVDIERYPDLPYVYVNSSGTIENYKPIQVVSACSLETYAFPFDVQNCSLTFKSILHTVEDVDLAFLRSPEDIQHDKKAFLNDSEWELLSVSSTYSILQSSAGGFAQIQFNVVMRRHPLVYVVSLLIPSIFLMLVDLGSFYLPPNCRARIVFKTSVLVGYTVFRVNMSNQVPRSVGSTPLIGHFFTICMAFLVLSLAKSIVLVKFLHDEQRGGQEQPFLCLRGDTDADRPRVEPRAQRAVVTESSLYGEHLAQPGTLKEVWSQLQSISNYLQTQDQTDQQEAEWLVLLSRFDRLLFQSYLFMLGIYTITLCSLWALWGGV
Procedure: as §1, §2, §3

5-HT3AB receptors [7] = target: T3, 5-HT3AB receptors; assay: Fluorescent membrane potential dye (FlexStation) in transfected HEK293 cells; assay type: cell-based; settings: Hill slope, 5-HT3AB receptors in HEK293 cells, mean ± SEM
Procedure: (§4) Human embryonic kidney (HEK) 293 cells were maintained on 90 mm tissue culture plates at 37 °C and 7% CO2 in a humidified atmosphere. They were cultured in DMEM:F12 with GlutaMAX I media (Dulbecco’s modified Eagle’s Medium/Nutrient Mix F12 (1:1), Invitrogen, Paisley, U.K.) containing 10% fetal calf serum. Cells in 90 mm dishes were transfected using polyethylenimine (PEI). Then 30 μL of PEI (1 mg/mL), 4 μL of cDNA (1 mg/mL) and 1 mL of DMEM were incubated for 10 min at room temperature, added dropwise to a 80–90% confluent plate, and incubated for 2–3 days. For Flexstation studies, cells were transferred to 96-well plates and allowed to adhere overnight before use.
as §2, with “[…] This was as previously described.[22] […] The cells” for “Ratios of 1:3 (5-HT3A:5-HT3B/5-HT3Br1/5-HT3Br2)”, “incubated at 37 °C” for “used”, “45 min, and then fluorescence was measured in a FlexStation (Molecular Devices) at 2 s intervals for 200 s. […] Analysis and curve fitting was performed using Prism (GraphPad Software, San Diego, CA, www.graphpad.com).” for “the expression of heteromeric receptors unless otherwise stated.”

5-HT3ABr2 receptors [8] = target: T1, 5-HT3ABr2 receptors; assay: as above; assay type: cell-based; settings: Hill slope, 5-HT3ABr2 receptors in HEK293 cells, mean ± SEM
Procedure: as §4
as §2, with “[…] This was as previously described.[22] […] The cells” for “Ratios of 1:3 (5-HT3A:5-HT3B/5-HT3Br1/5-HT3Br2)”, “incubated at 37 °C” for “used”, “45 min, and then fluorescence was measured in a FlexStation (Molecular Devices) at 2 s intervals for 200 s. […] Analysis and curve fitting was performed using Prism (GraphPad Software, San Diego, CA, www.graphpad.com).” for “the expression of heteromeric receptors unless otherwise stated.”

5-HT3A receptors [9] = target: T2, 5-HT3A receptors; assay: as above; assay type: cell-based; settings: Hill slope, 5-HT3A receptors in HEK293 cells, mean ± SEM
Procedure: as §4
as §2, with “[…] This was as previously described.[22] […] The cells” for “Ratios of 1:3 (5-HT3A:5-HT3B/5-HT3Br1/5-HT3Br2)”, “incubated at 37 °C” for “used”, “45 min, and then fluorescence was measured in a FlexStation (Molecular Devices) at 2 s intervals for 200 s. […] Analysis and curve fitting was performed using Prism (GraphPad Software, San Diego, CA, www.graphpad.com).” for “the expression of heteromeric receptors unless otherwise stated.”

5-HT3ABr1 receptors [10] = target: T4, 5-HT3ABr1 receptors; assay: as above; assay type: cell-based; settings: Hill slope, 5-HT3ABr1 receptors in HEK293 cells, mean ± SEM
Procedure: as §4
as §2, with “[…] This was as previously described.[22] […] The cells” for “Ratios of 1:3 (5-HT3A:5-HT3B/5-HT3Br1/5-HT3Br2)”, “incubated at 37 °C” for “used”, “45 min, and then fluorescence was measured in a FlexStation (Molecular Devices) at 2 s intervals for 200 s. […] Analysis and curve fitting was performed using Prism (GraphPad Software, San Diego, CA, www.graphpad.com).” for “the expression of heteromeric receptors unless otherwise stated.”

[11] = competition with 1 nM [3H]granisetron, values shown only in Figure 5

SMILES: COc1cc2c3cc1Oc1cc(ccc1O)C[C@@H]1c4c(cc(OC)c(O)c4Oc4ccc(cc4)C[C@@H]3N(C)CC2)CC[N+]1(C)C [d-TC, d-tubocurarine]
Ki, rank order of potency and comparison between receptor subtypes [1]: palonosetron > granisetron > MDL-72222 > mCPBG > d-TC

SMILES: C=C(C)[C@@H]1[C@H]2OC(=O)[C@@H]1[C@]1(O)C[C@H]3O[C@]34C(=O)O[C@H]2[C@]14C [picrotoxinin]
pIC50 (5-HT3ABr2 receptors [2]): 4.77
pIC50 (5-HT3A receptors [3]): 4.96

nH (5-HT3AB receptors [4]): 1.0
nH (5-HT3A receptors [5]): 2.6
nH (5-HT3ABr1 receptors [6]): 1.0
nH, parameters from functional data (5-HT3AB receptors [7]): 1.3 ± 0.2 ^b
nH, parameters from functional data (5-HT3ABr2 receptors [8]): 2.9 ± 0.4 ^c
nH, parameters from functional data (5-HT3A receptors [9]): 3.6 ± 0.8
nH, parameters from functional data (5-HT3ABr1 receptors [10]): 1.5 ± 0.3 ^b
SMILES: NCCc1c[nH]c2ccc(O)cc12 [5-HT, 5-hydroxytryptamine]

SMILES: O=C1c2cccc3c2[C@H](CCC3)CN1[C@@H]1CN2CCC1CC2 [palonosetron]
Ki, rank order of potency and comparison between receptor subtypes [1, 11]: palonosetron > granisetron > MDL-72222 > mCPBG > d-TC

SMILES: NC(N)=NC(N)=Nc1cccc(Cl)c1 [mCPBG]
Ki, rank order of potency and comparison between receptor subtypes [1, 11]: palonosetron > granisetron > MDL-72222 > mCPBG > d-TC

SMILES: CN1[C@@H]2CC[C@H]1C[C@@H](OC(=O)c1cc(Cl)cc(Cl)c1)C2 [MDL-72222]
Ki, rank order of potency and comparison between receptor subtypes [1, 11]: palonosetron > granisetron > MDL-72222 > mCPBG > d-TC
